These results are taken from patent US12187746B2, “C26-linked rapamycin analogs as mTOR inhibitors” (Revolution Medicines, Inc., priority 2018, dated 2025).

The subject of one assay is P-Akt (S473). In words: Cell based AlphaLISA assay, inhibition of P-Akt (S473) in MDA-MB-468 cells. The following applies: Homo sapiens, 4 h, 0.017-1,000 nM, two to four hours at 37° C., AlphaLisa SureFire Ultra, read-out: pIC50 for Inhibition of mTORC1 and mTORC2 Substrate Phosphorylation, p-AKT1/2/3-(S473) (converted). As for the experimental part: (§1) Cell Based AlphaLISA Assays For Determining IC50 For Inhibition of P-Akt (S473), P-4E-BP1 (T37/46), and P-P70S6K (T389) in MDA-MB-468 Cells
(§2) mTOR Kinase Cellular Assay
(§3) To measure functional activity of mTORC1 and mTORC2 in cells the phosphorylation of 4EBP1 (Thr37/46) and P70S6K (Thr389), and AKT1/2/3 (Ser473) was monitored using AlphaLisa SureFire Ultra Kits (Perkin Elmer). […] Incubations are terminated by removal of the assay buffer and addition of lysis buffer provided with the assay kit. Samples are processed according to the manufacturer's instructions. The Alpha signal from the respective phosphoproteins is measured in duplicate using a microplate reader (Envision, Perkin-Elmer or Spectramax M5, Molecular Devices). Inhibitor concentration response curves are analyzed using normalized IC50 regression curve fitting with control based normalization.
A general note: Alpha assays give light when donor and acceptor beads are brought close together.

For a further assay, the system named is P-4E-BP1 (T37/46). Nature of the assay: Cell based AlphaLISA assay, inhibition of P-4E-BP1 (T37/46) in MDA-MB-468 cells. The following applies: Homo sapiens, 4 h, 0.017-1,000 nM, two to four hours at 37° C., AlphaLisa SureFire Ultra, read-out: pIC50 for Inhibition of mTORC1 and mTORC2 Substrate Phosphorylation, p-4E-BP1-(T37/46) (converted). As for the experimental part:
as §1, §2, §3

The test system of another assay is P-P70S6K (T389). Nature of the assay: Cell based AlphaLISA assay, inhibition of P-P70S6K (T389) in MDA-MB-468 cells. The following applies: Homo sapiens, 4 h, 0.017-1,000 nM, two to four hours at 37° C., AlphaLisa SureFire Ultra, read-out: pIC50 for Inhibition of mTORC1 and mTORC2 Substrate Phosphorylation, p-P70S6K-(T389) (converted). As for the experimental part: as §1, §2, §3

A value given as a limit tells only on which side of the number the result lay.

Turning to `CO[C@H]1C[C@@H]2CC[C@@H](C)[C@@](O)(O2)C(=O)C(=O)N2CCCC[C@H]2C(=O)O[C@H]([C@H](C)C[C@@H]2CC[C@@H](O)[C@H](OC)C2)C[C@@H](O)[C@H](C)/C=C(\C)[C@@H](O)[C@@H](OC)C(=NOCC(=O)NCc2cnc(N3CCN(C(=O)CCOCCN4CCN(c5ncc(C(=O)N6CCC(n7nc(-c8ccc9oc(N)nc9c8)c8c(N)ncnc87)CC6)cn5)CC4)CC3)nc2)[C@H](C)C[C@H](C)/C=C/C=C/C=C/1C` [Example 32], the IC50 was 0.00316 to 0.0316 µM in the assay on P-Akt (S473), 0.00316 to 0.0316 µM in the assay on P-4E-BP1 (T37/46) and below 0.001 µM in the assay with P-P70S6K (T389).
As for `COc1ccc(-c2ccc3ncc4c(c3c2)n(-c2ccc(N3CCN(c5ncc6c(n5)CCN(C(=O)c5cnc(N7CCN(CCOCCC(=O)N8CCN(c9ncc(CNC(=O)CON=C%10[C@H](C)C[C@H](C)/C=C/C=C/C=C(\C)[C@@H](OC)C[C@@H]%11CC[C@@H](C)[C@@](O)(O%11)C(=O)C(=O)N%11CCCC[C@H]%11C(=O)O[C@H]([C@H](C)C[C@@H]%11CC[C@@H](O)[C@H](OC)C%11)C[C@@H](O)[C@H](C)/C=C(\C)[C@@H](O)[C@H]%10OC)cn9)CC8)CC7)nc5)C6)CC3)c(C(F)(F)F)c2)c(=O)n4C)cn1` [Example 33], the IC50 in the assay with P-Akt (S473) is above 1 µM; with P-4E-BP1 (T37/46), above 1 µM; with P-P70S6K (T389) it was 0.01 to 1 µM.
With `CO[C@H]1C[C@@H]2CC[C@@H](C)[C@@](O)(O2)C(=O)C(=O)N2CCCC[C@H]2C(=O)O[C@H]([C@H](C)C[C@@H]2CC[C@@H](O)[C@H](OC)C2)C[C@@H](O)[C@H](C)/C=C(\C)[C@@H](O)[C@@H](OC)C(=NOc2cccc(C(=O)NCc3cnc(N4CCN(C(=O)CCOCCN5CCN(c6ncc(C(=O)N7CCc8cc(Cn9nc(-c%10ccc%11oc(N)nc%11c%10)c%10c(N)ncnc%109)ccc8C7)cn6)CC5)CC4)nc3)c2)[C@H](C)C[C@H](C)/C=C/C=C/C=C/1C` [Example 35], the figures for the IC50 in the assay with P-Akt (S473), in the assay with P-4E-BP1 (T37/46) and with P-P70S6K (T389) were above 1 µM, above 1 µM and 0.01 to 1 µM, respectively.
In the case of `CO[C@H]1C[C@@H]2CC[C@@H](C)[C@@](O)(O2)C(=O)C(=O)N2CCCC[C@H]2C(=O)O[C@H]([C@H](C)C[C@@H]2CC[C@@H](O)[C@H](OC)C2)C[C@@H](O)[C@H](C)/C=C(\C)[C@@H](O)[C@@H](OC)C(=NOCC(=O)NCc2cnc(N3CCN(C(=O)CCOCCN4CCN(C(=O)CN(C)CC(=O)N5CCc6cc(Cn7nc(-c8ccc9oc(N)nc9c8)c8c(N)ncnc87)ccc6C5)CC4)CC3)nc2)[C@H](C)C[C@H](C)/C=C/C=C/C=C/1C` [Example 36], the IC50 was above 1 µM in the assay on P-Akt (S473), 0.0316 to 1 µM with P-4E-BP1 (T37/46) and 0.001 to 0.01 µM in the assay with P-P70S6K (T389).
The like results for `CO[C@H]1C[C@@H]2CC[C@@H](C)[C@@](O)(O2)C(=O)C(=O)N2CCCC[C@H]2C(=O)O[C@H]([C@H](C)C[C@@H]2CC[C@@H](O)[C@H](OC)C2)C[C@@H](O)[C@H](C)/C=C(\C)[C@@H](O)[C@@H](OC)C(=NOCC(=O)NCc2cnc(N3CCN(C(=O)CCCN4CCN(c5ncc(C(=O)NCCCCn6nc(-c7ccc8oc(N)nc8c7)c7c(N)ncnc76)cn5)CC4)CC3)nc2)[C@H](C)C[C@H](C)/C=C/C=C/C=C/1C` [Example 37] were, in that order, 0.00316 to 0.0316 µM, 0.00316 to 0.0316 µM and below 0.001 µM.
The like results for `CO[C@H]1C[C@@H]2CC[C@@H](C)[C@@](O)(O2)C(=O)C(=O)N2CCCC[C@H]2C(=O)O[C@H]([C@H](C)C[C@@H]2CC[C@@H](O)[C@H](OC)C2)C[C@@H](O)[C@H](C)/C=C(\C)[C@@H](O)[C@@H](OC)C(=NOCC(=O)NCc2cnc(N3CCN(C(=O)CCOCCN4CCN(c5ncc(C(=O)NCCOCCC(=O)N6CCc7cc(Cn8nc(-c9ccc%10oc(N)nc%10c9)c9c(N)ncnc98)ccc7C6)cn5)CC4)CC3)nc2)[C@H](C)C[C@H](C)/C=C/C=C/C=C/1C` [Example 39] were, in that order, above 1 µM, 0.00316 to 0.0316 µM and 0.001 to 0.01 µM.
For `CO[C@H]1C[C@@H]2CC[C@@H](C)[C@@](O)(O2)C(=O)C(=O)N2CCCC[C@H]2C(=O)O[C@H]([C@H](C)C[C@@H]2CC[C@@H](O)[C@H](OC)C2)C[C@@H](O)[C@H](C)/C=C(\C)[C@@H](O)[C@@H](OC)C(=NOCC(=O)NCc2cnc(N3CCN(C(=O)CCOCCN4CCN(CCOCCC(=O)N5CCc6cc(Cn7nc(-c8ccc9oc(N)nc9c8)c8c(N)ncnc87)ccc6C5)CC4)CC3)nc2)[C@H](C)C[C@H](C)/C=C/C=C/C=C/1C` [Example 40] the same measures were above 1 µM, 0.00316 to 0.0316 µM and 0.001 to 0.01 µM.
For the molecule `CO[C@H]1C[C@@H]2CC[C@@H](C)[C@@](O)(O2)C(=O)C(=O)N2CCCC[C@H]2C(=O)O[C@H]([C@H](C)C[C@@H]2CC[C@@H](O)[C@H](OC)C2)C[C@@H](O)[C@H](C)/C=C(\C)[C@@H](O)[C@@H](OC)C(=NOCC(=O)NCCOCCC(=O)NCc2cnc(N3CCN(C(=O)CCOCCN4CCN(c5ncc(C(=O)NCCCCn6nc(-c7cnc8[nH]ccc8c7)c7c(N)ncnc76)cn5)CC4)CC3)nc2)[C@H](C)C[C@H](C)/C=C/C=C/C=C/1C` [Example 42], the IC50 is above 1 µM in the assay on P-Akt (S473), 0.00316 to 0.0316 µM with P-4E-BP1 (T37/46) and 0.001 to 0.01 µM with P-P70S6K (T389).
As for `CO[C@H]1C[C@@H]2CC[C@@H](C)[C@@](O)(O2)C(=O)C(=O)N2CCCC[C@H]2C(=O)O[C@H]([C@H](C)C[C@@H]2CC[C@@H](O)[C@H](OC)C2)C[C@@H](O)[C@H](C)/C=C(\C)[C@@H](O)[C@@H](OC)C(=NOCC(=O)NCCOCCC(=O)NCc2cnc(N3CCN(C(=O)CCOCCN4CCN(c5ncc(C(=O)NCCCCn6nc(-c7ccc8oc(N)nc8c7)c7c(N)ncnc76)cn5)CC4)CC3)nc2)[C@H](C)C[C@H](C)/C=C/C=C/C=C/1C` [Example 43], the IC50 in the assay on P-Akt (S473) is 0.0316 to 1 µM; in the assay on P-4E-BP1 (T37/46), 0.00316 to 0.0316 µM; with P-P70S6K (T389), below 0.001 µM.
For the molecule `CO[C@H]1C[C@@H]2CC[C@@H](C)[C@@](O)(O2)C(=O)C(=O)N2CCCC[C@H]2C(=O)O[C@H]([C@H](C)C[C@@H]2CC[C@@H](O)[C@H](OC)C2)C[C@@H](O)[C@H](C)/C=C(\C)[C@@H](O)[C@@H](OC)C(=NOCC(=O)NCCOCCC(=O)NCc2cnc(N3CCN(C(=O)CCOCCN4CCN(c5ncc(C(=O)N6CCc7cc(Cn8nc(-c9ccc%10oc(N)nc%10c9)c9c(N)ncnc98)ccc7C6)cn5)CC4)CC3)nc2)[C@H](C)C[C@H](C)/C=C/C=C/C=C/1C` [Example 44], the IC50 in the assay on P-Akt (S473) is 0.0316 to 1 µM; in the assay on P-4E-BP1 (T37/46), 0.00316 to 0.0316 µM; in the assay on P-P70S6K (T389) it was below 0.001 µM.
Regarding `CO[C@H]1C[C@@H]2CC[C@@H](C)[C@@](O)(O2)C(=O)C(=O)N2CCCC[C@H]2C(=O)O[C@H]([C@H](C)C[C@@H]2CC[C@@H](O)[C@H](OC)C2)C[C@@H](O)[C@H](C)/C=C(\C)[C@@H](O)[C@@H](OC)C(=NOCC(=O)NCCOCCOCCOCCOCCOCCOCCOCCOCCC(=O)NCCS(=O)(=O)c2ccc(C(=O)N3CCOc4ccc(-c5ccc(N)nc5)cc4C3)c(C)c2)[C@H](C)C[C@H](C)/C=C/C=C/C=C/1C` [Example 45], the IC50 is above 1 µM with P-Akt (S473), 0.00316 to 0.0316 µM in the assay on P-4E-BP1 (T37/46) and 0.001 to 0.01 µM with P-P70S6K (T389).
For `CO[C@H]1C[C@@H]2CC[C@@H](C)[C@@](O)(O2)C(=O)C(=O)N2CCCC[C@H]2C(=O)O[C@H]([C@H](C)C[C@@H]2CC[C@@H](O)[C@H](OC)C2)C[C@@H](O)[C@H](C)/C=C(\C)[C@@H](O)[C@@H](OC)C(=NOCC(=O)NCCOCCOCCOCCOCCOCCOCCOCCOCCC(=O)NCCS(=O)(=O)c2ccc(C(=O)N3CCOc4ccc(-c5ccc(N)nc5)cc4C3)c(C)c2F)[C@H](C)C[C@H](C)/C=C/C=C/C=C/1C` [Example 46] the same measures were above 1 µM, 0.00316 to 0.0316 µM and 0.001 to 0.01 µM.
The like results for `CO[C@H]1C[C@@H]2CC[C@@H](C)[C@@](O)(O2)C(=O)C(=O)N2CCCC[C@H]2C(=O)O[C@H]([C@H](C)C[C@@H]2CC[C@@H](O)[C@H](OC)C2)C[C@@H](O)[C@H](C)/C=C(\C)[C@@H](O)[C@@H](OC)C(=NOC(C)(C)C(=O)NCCOCCOCCOCCOCCOCCOCCC(=O)N2CCc3cc(Cn4nc(-c5ccc6oc(N)nc6c5)c5c(N)ncnc54)ccc3C2)[C@H](C)C[C@H](C)/C=C/C=C/C=C/1C` [Example 48] were, in that order, above 1 µM, 0.00316 to 0.0316 µM and 0.01 to 1 µM.
For `CO[C@H]1C[C@@H]2CC[C@@H](C)[C@@](O)(O2)C(=O)C(=O)N2CCCC[C@H]2C(=O)O[C@H]([C@H](C)C[C@@H]2CC[C@@H](O)[C@H](OC)C2)C[C@@H](O)[C@H](C)/C=C(\C)[C@@H](O)[C@@H](OC)C(=NOCC(=O)NCc2cnc(N3CCN(c4ncc(C(=O)NCCOCCC(=O)N5CCc6cc(Cn7nc(-c8ccc9oc(N)nc9c8)c8c(N)ncnc87)ccc6C5)cn4)[C@H](CN(C)C)C3)nc2)[C@H](C)C[C@H](C)/C=C/C=C/C=C/1C` [Example 49] the same measures were above 1 µM, 0.00316 to 0.0316 µM and 0.001 to 0.01 µM.
